Data: ChEMBL document CHEMBL1159081, “Anti-influenza diarylheptanoids from the bark of Alnus japonica” (Bioorg Med Chem Lett, 2010)
pEC50: −log10 of the molar value.

Columns and labels:
Influenza A virus = experiment: Antiviral activity against Influenza A virus (A/Korea/KBNP-0028/2000(H9N2)) infected in chicken egg after 5 days by hemagglutinination assay; assay type: functional, organism-based; settings: 120 h
[1] = Cytotoxicity against CEF cells by MTT assay; assay type: cell-based, Gallus gallus; settings: chicken
[2] = Selectivity index, ratio of CC50 for CEF cells to EC50 for Influenza A virus (A/Korea/KBNP-0028/2000(H9N2)); assay type: toxicity, cell-based; settings: chicken

Structure (SMILES) | pEC50 (Influenza A virus) | CC50 [1] | selectivity ratio [2]
O=C(CCc1ccc(O)c(O)c1)C[C@H](CCc1cccc(O)c1)O[C@@H]1OC[C@@H](O)[C@H](O)[C@H]1O [ALNUSIDE A] | < 3.46 | > 500 µM | 
O=C(/C=C/CCc1ccc(O)c(O)c1)CCc1ccc(O)c(O)c1 [DEHYDROHIRSUTANONOL] | < 3.46 | > 500 µM | 
O=C(CCc1ccc(O)cc1)C[C@H](CCc1cccc(O)c1)O[C@@H]1OC[C@@H](O)[C@H](O)[C@H]1O | 4.25 | > 560 µM | > 10
CC(=O)N[C@H]1[C@H]([C@H](O)[C@H](O)CO)OC(C(=O)O)=C[C@@H]1N=C(N)N [ZANAMIVIR] |  | > 753 µM | > 44
COc1cc(/C=C/C(=O)O[C@H]2[C@H](O[C@@H](CCc3ccc(O)c(O)c3)CC(=O)CCc3ccc(O)c(O)c3)OC[C@@H](O)[C@@H]2O)ccc1O [OREGONOYL B] | < 3.46 | > 500 µM | 
O=C(CCc1ccc(O)c(O)c1)C[C@@H](O)CCc1ccc(O)c(O)c1 [HIRSUTANONOL] | < 3.46 | > 500 µM | 
O=C(CCc1ccc(O)c(O)c1)C[C@H](CCc1ccc(O)c(O)c1)O[C@@H]1OC[C@@H](O)[C@H](O)[C@H]1OC(=O)/C=C/c1ccc(O)cc1 [OREGONOYL A] | < 3.46 | > 500 µM | 
